2 compounds from publication PMC7323874, “Vancomycin Resistance Is Overcome by Conjugation of Polycationic Peptides” (Angewandte Chemie (International Ed. in English), 2020) can be followed below.

Values after ≈ are worked out from the molar mass of the structure shown. Like-named read-outs stand apart in the source and are kept apart here.

For assay [1], the system named is Staphylococcus aureus USA300 LAC. Briefly: microbe, parasite or virus in culture. The class given is cell-based. As to conditions: Staphylococcus aureus, MRSA / USA300, 24 h. The method, then:
(§1) Antimicrobial testing – Microdilution
Antimicrobial testing was performed according to CLSI and EUCAST guidelines in microdilution.8-10 Therefore, all tested substances as well as controls were dissolved in water in different concentrations and serially diluted in MHB II (cation adjusted) on the 96-well plate. A logarithmic growing, overnight culture of the respective bacterial strain was used and adjusted to a McFarland corresponding to 1 × 10^8 cfu/ml. Afterwards the bacterial suspension was diluted to 1 ×10^6 cfu/ml and loaded on the 96-well polypropylene plates, resulting in a final bacterial concentration of 5 × 10^5 cfu/ml. After an incubation at 35 ± 1 °C for 18-20 hours (re-controlled after 24 hours) the MIC was determined as the lowest concentration without visible growth as described previously.11 For direct comparison of the tested substances, all results were calculated in mg/ml and mol/ml afterwards. […]
Resistance development study
(§2) Resistance development in S. aureus was determined by passaging bacteria in increasing amounts of vancomycin, FU002 or, as control, fusidic acid. In principle, tubes with twofold dilutions of the compounds in 1 ml Muller Hinton broth were inoculated 1:100 with bacterial suspension. The tubes were then incubated for 24 h at 37 °C under shaking. After each passage, the tube with the highest compound concentration showing bacterial growth was used to inoculate the tubes of the next passage (1:100). The tube with the lowest compound concentration showing no growth was defined as the passage MIC. Passaging was stopped after 8 passages.
For the validation of possible side effects provoked by the conjugates, the cytotoxic effect of the lead candidate FU002 on human cells was assessed in a colorimetric viability assay. Different human cell types were used including kidney and liver cell lines as well as freshly isolated peripheral blood cells. Cells were seeded into 96-well microtiter plates at 2 x 10^4 cells/well and cultured overnight (18-24 h) in a […]

For assay [2], the system named is Staphylococcus aureus NCTC 10442. As to the kind of experiment: Blocking experiments with Nα,Nε-diacetyl-Lys-D-Ala-D-Ala in microdilution. As to conditions: at least 100-fold excess of Nα,Nε-Diacetyl-Lys-D-Ala-D-Ala, pre-incubation minimum 1 hour at room temperature. The class given is cell-based. The procedure:
as §1
Antimicrobial testing was performed according to CLSI and EUCAST guidelines in microdilution.8-10 Therefore, all tested substances as well as controls were dissolved in water in different concentrations and serially diluted in MHB II (cation adjusted) on the 96-well plate. A logarithmic growing, overnight culture of the respective bacterial strain was used and adjusted to a McFarland corresponding to 1 × 10^8 cfu/ml. Afterwards the bacterial suspension was diluted to 1 ×10^6 cfu/ml and loaded on the 96-well polypropylene plates, resulting in a final bacterial concentration of 5 × 10^5 cfu/ml. After an incubation at 35 ± 1 °C for 18-20 hours (re-controlled after 24 hours) the MIC was determined as the lowest concentration without visible growth as described previously.11 For direct comparison of the tested substances, all results were calculated in mg/ml and mol/ml afterwards.
as §2, with “For blocking experiments with NΑ,NΕ-DIACETYL-LYS-D-ALA-D-ALA the tested substances were incubated directly on the dilution plate with at least 100-fold excess of Nα,Nε-Diacetyl-Lys-D-Ala-D-Ala for a minimum of 1 hour at room temperature. Afterwards, the procedure was performed as described above. As further control substance, the glycopeptide antibiotic teicoplanin was evaluated. […] Resistance” for “Resistance”, “Passaging was stopped after 8 passages.” left out
For the validation of possible side effects provoked by the conjugates, the cytotoxic effect of the lead candidate FU002 on human cells was assessed in a colorimetric viability assay. […]
For orientation: In broth dilution the organism is exposed to a series of concentrations in liquid medium.

Regarding `CC(=O)O[C@H]1C[C@@]2(C)[C@@H](C[C@@H](O)[C@H]3[C@@]4(C)CC[C@@H](O)[C@@H](C)[C@@H]4CC[C@@]32C)/C1=C(\CCC=C(C)C)C(=O)O` [fusidic acid], the MIC was 64 µg/mL (≈ 124 µM) in assay [1] (read-out: MIC after 8 passages) and 0.125 µg/mL (≈ 0.242 µM) in assay [1] (read-out: initial MIC). On to teicoplanin, for which the “effect of D-Ala-D-Ala binding motif on antibiotic activity” value in assay [2] is recorded as “suppresses the antibiotic activity”.
